Results on 10 compounds are retold here after ChEMBL document CHEMBL1201862, “PubChem BioAssay data set” (2004).

Structures are written as SMILES.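 Grown in 96-well plates, cells were treated for 48 hours with each compound at five concentrations. Insufficient inhibition: endpoint recorded as highest concentration tested. At the GI50, growth is halved.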 Calls of active or inactive are those of the source. Rule as the data show it: active = GI50 up to about 1.1 µM and inactive = higher. Where a SMILES comes first, the peptide text is derived from it. [ ]: non-standard residue; d: D form. The star is where a group is joined. Phe(4-NO2) = N[CH](Cc1ccc([N+](=O)[O-])cc1)C(=O)O; Boc = CC(C)(C)OC(=O)*; OtBu = CC(C)(C)O*

Common to all, as to assay: inhibition of tumour cell growth, NCI panel, 48 h
The subject of assay [1] is A549.
Assay [2] relates to CAKI-1.
Assay [3] relates to HCT-116.
Assay [4] relates to HOP-92.
In assay [5] the test system is HT-29.
Assay [6] deals with KM12.
Assay [7] deals with M14.
Assay [8] has as its system MCF7.
The test system of assay [9] is MDA-MB-231.
Assay [10] concerns MDA-MB-435.
The test system of assay [11] is MDA-N.
Assay [12] deals with MOLT-4.
The subject of assay [13] is NCI/ADR-RES.
Assay [14] has as its system OVCAR-4.
In assay [15] the test system is SF-539.
Assay [16] has as its system SK-MEL-28.
Assay [17] concerns SK-MEL-2.
The subject of assay [18] is SK-MEL-5.
Assay [19] deals with SN12C.
Assay [20] has as its system UO-31.

In the case of `CC(=O)OCCN1c2ccccc2Sc2cnccc21`, the GI50 in assay [1] is > 10 µM (inactive); in [2], > 10 µM (inactive); in assay [3], > 10 µM (inactive); in [4] it was > 10 µM (inactive); in assay [5], > 10 µM (inactive); in assay [6] it was 0.067 µM (active). Further, the GI50 in assay [7], in assay [8], in assay [9], in assay [10], in assay [11] and in assay [12] was > 10 µM (inactive) throughout. The GI50 in assay [13], in assay [14], in assay [15], in [16], in assay [17] and in [18] was > 10 µM (inactive) in each case. Further, the GI50 in assay [19] and in assay [20] was > 10 µM (inactive) each time.
For the compound `COC(=O)C(Cc1ccc([N+](=O)[O-])cc1)NC(=O)C(CC(=O)OC(C)(C)C)NC(=O)OC(C)(C)C` (stereo not given) (Boc-Asp(OtBu)-[Phe(4-NO2)]-OMe; configuration not given here), the GI50 in assay [1], in [2], in [3], in assay [4], in assay [5] and in assay [6] was > 100 µM (inactive) throughout. Further, the GI50 in assay [7] was 29.4 µM (inactive); in assay [8], > 100 µM (inactive); in assay [9] it was 25.8 µM (inactive); in [10] it was > 100 µM (inactive); in [11], > 100 µM (inactive); in assay [12] it was 66.8 µM (inactive). Moreover, the GI50 is > 100 µM (inactive) in assay [13]; 38.4 µM (inactive) in assay [14]; > 100 µM (inactive) in [15]; 25.5 µM (inactive) in [16]; > 100 µM (inactive) in assay [17]; > 100 µM (inactive) in assay [18]. For the same compound, the GI50 in assay [19] was > 100 µM (inactive); in [20], 14.3 µM (inactive).
With `COC(=O)C1CCC(=O)N1CN(C(C)=O)c1ccccc1` (stereo not given), the GI50 in [1], in assay [2], in [3], in [4], in [5] and in [6] was > 100 µM (inactive) in each case. Moreover, the GI50 in assay [7], in assay [8], in [9], in assay [10], in [11] and in assay [12] was > 100 µM (inactive) in each case. Besides, the GI50 in assay [13], in assay [14], in assay [15], in assay [16], in [17] and in assay [18] was > 100 µM (inactive) throughout. The GI50 in [19] and in [20] was > 100 µM (inactive) throughout.
Take `CCOC(=O)C1Cc2ccc(C)cc2C1=O` (stereo not given): the GI50 in [1], in assay [2], in [3], in [4], in [5] and in assay [6] was > 100 µM (inactive) throughout. The GI50 was > 100 µM (inactive) in [7]; > 100 µM (inactive) in assay [8]; > 100 µM (inactive) in assay [9]; 54.5 µM (inactive) in assay [10]; > 100 µM (inactive) in assay [11]; 39.4 µM (inactive) in assay [12]. Besides, the GI50 in assay [13] is 85.1 µM (inactive); in [14], 81.7 µM (inactive); in [15], > 100 µM (inactive); in assay [16] it was 23.8 µM (inactive); in assay [17] it was > 100 µM (inactive); in assay [18] it was 72.1 µM (inactive). The figures for the GI50 in assay [19] and in [20] were 82.6 µM (inactive) and 48.6 µM (inactive), respectively.
Regarding `C=CC(=O)N1C/C(=C\c2ccccc2)C(=O)/C(=C/c2ccccc2)C1`, the GI50 in assay [1] was 2.92 µM (inactive); in assay [2], 2.83 µM (inactive); in assay [3], 0.195 µM (active); in [4] it was 3.62 µM (inactive); in assay [5], 0.467 µM (active); in assay [6] it was 0.989 µM (active). For the same compound, the GI50 in assay [7] is 1.71 µM (inactive); in [8], 0.5 µM (active); in [9], 2 µM (inactive); in assay [10] it was 0.53 µM (active); in assay [11], 0.318 µM (active); in assay [12], 0.458 µM (active). For the same compound, the GI50 in assay [13] was 1.93 µM (inactive); in assay [14] it was 2.16 µM (inactive); in assay [15], 1.58 µM (inactive); in assay [16] it was 1.82 µM (inactive); in [17], 2.1 µM (inactive); in [18], 1.61 µM (inactive). Further, the figures for the GI50 in assay [19] and in assay [20] were 1.67 µM (inactive) and 1.77 µM (inactive), respectively.
For `C[N+]1(CCC[N+]2(C)CC3C4C=CC(CC4)C3C2)CCOCC1` (stereo not given), the GI50 in [1], in assay [2], in assay [3], in assay [4], in [5] and in assay [6] was > 100 µM (inactive) throughout. In addition, the GI50 in assay [7], in [8], in assay [9], in assay [10], in [11] and in assay [12] was > 100 µM (inactive) each time. The GI50 in assay [13] was > 100 µM (inactive); in assay [14], > 100 µM (inactive); in [15] it was > 100 µM (inactive); in [16] it was > 100 µM (inactive); in [17], > 100 µM (inactive); in assay [18], 18.5 µM (inactive). Also, the GI50 in [19] and in assay [20] was > 100 µM (inactive) throughout.
Take `CCC(=O)C(C(C)/C=C/CCSc1ccccc1)C(O)CCCCCC(=O)OC` (stereo not given): the GI50 is 91.6 µM (inactive) in assay [1]; 67.5 µM (inactive) in [2]; > 100 µM (inactive) in [3]; 13.7 µM (inactive) in assay [4]; > 100 µM (inactive) in assay [5]; 40.6 µM (inactive) in assay [6]. Besides, the GI50 was > 100 µM (inactive) in assay [7]; 66.4 µM (inactive) in assay [8]; > 100 µM (inactive) in assay [9]; > 100 µM (inactive) in assay [10]; > 100 µM (inactive) in [11]; 27.1 µM (inactive) in assay [12]. Further, the GI50 was 99.5 µM (inactive) in assay [13]; > 100 µM (inactive) in [14]; > 100 µM (inactive) in assay [15]; > 100 µM (inactive) in assay [16]; > 100 µM (inactive) in assay [17]; 36.8 µM (inactive) in assay [18]. For the same compound, the GI50 in [19] and in [20] was > 100 µM (inactive) each time.
As to `O=c1cc(C(F)(F)F)c2cc3c(cc2o1)NCCC3`, the GI50 in assay [1] was > 100 µM (inactive); in assay [2] it was 86.9 µM (inactive); in [3], 28.8 µM (inactive); in assay [4], 46.1 µM (inactive); in assay [5], > 100 µM (inactive); in assay [6], > 100 µM (inactive). Besides, the GI50 in assay [7] was > 100 µM (inactive); in [8] it was 3.16 µM (inactive); in assay [9], > 100 µM (inactive); in assay [10], > 100 µM (inactive); in [11], > 100 µM (inactive); in assay [12], > 100 µM (inactive). Moreover, the GI50 in [13] is > 100 µM (inactive); in assay [14], 70.6 µM (inactive); in [15] it was > 100 µM (inactive); in assay [16] it was > 100 µM (inactive); in [17] it was 78.3 µM (inactive); in [18], 78.3 µM (inactive). Besides, the GI50 in assay [19] is > 100 µM (inactive); in assay [20], 61.1 µM (inactive).
For `CC(C)(C)OC(=O)Nc1nnc(S(N)(=O)=O)s1`, the GI50 in [1], in assay [2], in assay [3], in assay [4], in assay [5] and in assay [6] was > 100 µM (inactive) throughout. In addition, the GI50 in assay [7], in assay [8], in [9], in assay [10], in [11] and in assay [12] was > 100 µM (inactive) throughout. The GI50 in assay [13], in assay [14], in assay [15], in [16], in [17] and in [18] was > 100 µM (inactive) each time. Also, the GI50 in assay [19] and in [20] was > 100 µM (inactive) each time.
For `CC(=O)OCC1OC(N2C(=O)CC(N)=Nc3ccccc32)C(OC(C)=O)C(OC(C)=O)C1OC(C)=O` (stereo not given), the GI50 in assay [1] is > 100 µM (inactive); in [2], > 100 µM (inactive); in [3], 81.8 µM (inactive); in [4], > 100 µM (inactive); in assay [5], 53.8 µM (inactive); in [6] it was 45.2 µM (inactive). In addition, the GI50 was 38.6 µM (inactive) in assay [7]; 29.4 µM (inactive) in assay [8]; > 100 µM (inactive) in assay [9]; 30.6 µM (inactive) in [10]; 32.7 µM (inactive) in assay [11]; 16.7 µM (inactive) in assay [12]. In addition, the GI50 in [13] was 45.3 µM (inactive); in assay [14], 57.8 µM (inactive); in [15], 23.2 µM (inactive); in [16], 38.4 µM (inactive); in assay [17], 48.4 µM (inactive); in [18] it was 17 µM (inactive). For the same compound, the GI50 in [19] was 58.2 µM (inactive); in assay [20] it was > 100 µM (inactive).
